Data as given in patent publication US10072055B2, “Anti-inflammatory pharmaceutical products” (Resother Pharma APS, priority 2011, dated 2018).
Entries after “also recorded” stand apart in the source; their conditions may differ. Ends that are not written are not given here.

How the values were obtained:
HNE = target: T1, HNE (Homo sapiens, UniProt P08246); test: In vitro degradation/digest in the presence of HNE; format: in vitro ADME
T1 sequence (P08246 30-267): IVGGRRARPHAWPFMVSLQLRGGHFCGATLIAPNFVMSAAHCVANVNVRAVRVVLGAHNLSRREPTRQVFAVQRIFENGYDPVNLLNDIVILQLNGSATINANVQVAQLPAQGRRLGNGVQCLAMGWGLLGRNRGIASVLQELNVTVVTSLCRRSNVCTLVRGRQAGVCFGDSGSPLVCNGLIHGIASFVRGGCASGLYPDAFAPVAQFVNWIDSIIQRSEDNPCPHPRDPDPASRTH
Procedure: FIG. 9 is a logarithmic plot of the degradation over time of three polypeptides of the present disclosure, UGP022 (SEQ ID NO: 5), UGP025 (SEQ ID NO: 7) and UGP026 (SEQ ID NO: 8) in the presence of HNE, a protease implicated in the in vivo cleavage of Annexin 1.
In an attempt to improve the potency and increase the half-life of the UGP022 peptide of the present disclosure (SEQ ID NO: 5), a series of in vitro PR3 and FINE digests were conducted. […] This cleavage site is not believed to have been identified in the literature.
Degradation tests of three polypeptides of the present disclosure, UGP022 (SEQ ID NO:5), UGP025 (SEQ ID NO:7) and UGP026 (SEQ ID NO:8) in the presence of PR3, a protease implicated in the in vivo cleavage of Annexin 1, indicated better stability for polypeptides with Leucine substitution at position 24 relative to a polypeptide lacking that feature. Position 24 corresponds to position 25 of Annexin 1 because all tested polypeptides lack the methionine at position 1 of natural Annexin. A 47-residue polypeptide outperformed an otherwise identical 49-residue polypeptide. Similar results were obtained in degradation tests in the presence of FINE.
FIG. 9 is a logarithmic plot of the degradation over time of three polypeptides of the present disclosure, UGP022 (SEQ ID NO:5), UGP025 (SEQ ID NO:7) and UGP026 (SEQ ID NO:8) in the presence of […], a protease implicated in the in vivo cleavage of Annexin 1. […] Also, a 47-residue polypeptide amidated at its C-terminus outperformed an otherwise identical 49-residue polypeptide amidated at its C-terminus.

[1] = tested on: PMN interaction to an activated HUVEC monolayer; test: Flow chamber assay: PMN interaction with activated HUVEC monolayer (capture, rolling, adhesion); format: cell-based, human; conditions: for inhibition of PMN/neutrophil-endothelium interactions in flow chamber: concentration not given
Description: FIGS. 2A-2C are a series of charts reporting data from flow chamber analysis to determine the inhibitory capability of five polypeptides of the present disclosure (Pep57 (SEQ ID NO:12); Pep59 (SEQ ID NO:13), Pep60 (SEQ ID NO:15), Pep83 (SEQ ID NO:16) and Pep84 (SEQ ID NO:14)) and Ac-ANAX1(2-26)-OH to reduce PMN interaction to an activated HUVEC monolayer.
FIGS. 4A-4C are a series of bar charts reporting percent inhibition provided by three polypeptides (UGP022 (SEQ ID NO:5); UGP025 (SEQ ID NO:7) and UGP026 (SEQ ID NO:8)) of the present disclosure, at different concentrations, on three different parameters (capture—FIG. 4A; rolling—FIG. 4B; and adhesion—FIG. 4C).
FIGS. 2A-2C are a series of charts reporting data from flow chamber analysis to determine the inhibitory capability of five polypeptides (Pep57 (SEQ ID NO: 12); Pep59 (SEQ ID NO: 13), Pep60 (SEQ ID NO: 15), Pep83 (SEQ ID NO: 16) and Pep84 (SEQ ID NO: 14)) of the present disclosure and Ac-ANAX1(2-26)-OH to reduce PMN interaction to an activated HUVEC monolayer. PMNs (5×10^6) were incubated with 10 μM of the various peptides for 10 min at 37° C. The PMNs were then flowed for 8 min at 1 dyne/cm^2, prior to quantifying the degree of PMN interaction with the HUVECs, both as PMN capture (FIG. 2A), adhesion (FIG. 2B) and rolling (FIG. 2C). […] Data are mean±SEM of 3 independent experiments (with distinct PMN and HUVEC preparations); *=P<0.05 vs. CT group, data analyzed using one way ANOVA.
FIGS. 4A-4C make a direct comparison of the activities of UGP022 (SEQ ID NO:5), UGP025 (SEQ ID NO: 7) and UGP026 (SEQ ID NO: 8) in the flow chamber assay, presenting the degree of inhibition on the three parameters under analysis (capture (FIG. 4A); rolling (FIG. 4B) and adhesion (FIG. 4C)).

[2] = tested on: phagocytosis of apoptotic cells; test: Phagocytosis of apoptotic PMN (efferocytosis); format: cell-based
Description: FIG. 5 is a series of bar charts reporting the ability of three polypeptides (UGP022 (SEQ ID NO:5); UGP025 (SEQ ID NO:7) and UGP026 (SEQ ID NO:8))_of the present disclosure, at different concentrations, to mimic an Annexin A1 property of inducing phagocytosis of apoptotic cells.
In recent years important pro-resolving properties have been ascribed to Annexin A1, namely the induction of phagocytosis of apoptotic cells by macrophages and cells alike. This effect is also reliant on FPR2 and shared with other important pro-resolving mediators including the lipoxins and the resolvins.
FIG. 5 is a series of bar charts reporting the ability of three polypeptides (UGP022 (SEQ ID NO:5); UGP025 (SEQ ID NO:7) and UGP026 (SEQ ID NO:8)) of the present disclosure, at different concentrations, to mimic an Annexin A1 property of inducing phagocytosis of apoptotic cells.

FPR2 = target: T2, FPR2 (Homo sapiens, UniProt P25090); test: Binding affinity to FPR2
T2 sequence (P25090 1-351): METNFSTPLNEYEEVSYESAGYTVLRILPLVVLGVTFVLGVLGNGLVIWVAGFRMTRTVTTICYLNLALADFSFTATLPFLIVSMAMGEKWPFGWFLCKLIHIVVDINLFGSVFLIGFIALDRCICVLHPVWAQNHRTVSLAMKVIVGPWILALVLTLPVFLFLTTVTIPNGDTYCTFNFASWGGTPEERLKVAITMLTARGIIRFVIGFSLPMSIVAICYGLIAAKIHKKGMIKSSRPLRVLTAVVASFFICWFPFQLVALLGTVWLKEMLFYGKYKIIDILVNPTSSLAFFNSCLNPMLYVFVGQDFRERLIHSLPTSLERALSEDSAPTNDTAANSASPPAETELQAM

| Substance | stability / resistance to HNE degradation (HNE) | inhibition of PMN/neutrophil-endothelium interactions in flow chamber [1] | induction of phagocytosis of apoptotic PMN [2] | affinity to FPR2 over FPR1 (FPR2) | activity in flow chamber assay at 100 fM ([1]; 100 fM) | activity in flow chamber assay at the higher concentrations tested ([1]; higher concentrations) | binding affinity to FPR2 (FPR2) | cleavage sites by HNE (HNE; in vitro digest) | lowest concentration with significant anti-inflammatory effect on human PMN ([1]; human PMN) [pM] |
| --- | --- | --- | --- | --- | --- | --- | --- | --- | --- |
| AMVSEFLKQAWFIENEEQEYVQTLKSSKGGPGSAVSPYPTFNPSSDVAA-NH2 [UGP026, Leu25-ANXA1(2-50)-NH2] | more resistant to PR3 and FINE than the UGP022 peptide | able to reduce the number of human PMNs interacting with an activated endothelium, acting specifically through the FPR2 receptor | promoted phagocytosis of the apoptotic PMN | retain a higher affinity to FPR2 over FPR1 | – | – | – | – | – |
| AMVSEFLKQAWFIENEEQEYVQTLKSSKGGPGSAVSPYPTFNPSSDV-NH2 [UGP025, Leu25-ANXA1(2-48)-NH2] | more resistant to PR3 and FINE than the UGP022 peptide | able to reduce the number of human PMNs interacting with an activated endothelium, acting specifically through the FPR2 receptor | promoted phagocytosis of the apoptotic PMN | retain a higher affinity to FPR2 over FPR1 | slightly more active at the 100 fM concentration when compared to the UGP022 peptide | less active at the higher concentrations tested | seems to have a higher affinity to FPR2 than does UGP026 | – | – |
| AMVSEFLKQAWFIENEEQEYVQTVKSSKGGPGSAVSPYPTFNPSSDVAA-NH2 [UGP022, ANXA1(2-50)-NH2] | – | more potent than either the UGP021 peptide; also recorded: able to reduce the number of human PMNs interacting with an activated endothelium, acting specifically through the FPR2 receptor | displaying the higher ability to induce this process | – | – | – | binding affinity to the FPR2 in the nanomolar range; also recorded: showing the highest affinity | Ala 10 (Ala11 relative to Annexin 1) and Val 21 (Val22 relative to Annexin 1); also recorded: Val 35 (Val36 relative to Annexin 1) was only cleaved by FINE; also recorded: Val 24 (Val25 relative to Annexin 1) | 1 |
